# Assay results as given in patent US20240002424A1, “HEXOSAMINE COMPOUNDS AND METHODS THEREOF” (National Institute of Immunology, priority 2021, published 2024).
# What was measured:
# Assay type in all cases: cell-based, human
# [1] = system: Jurkat cells; assay: NeuAz expression on the cell surface by SPAAC with DBCO-Cy5 and flow cytometry, competition with Ac4ManNAz (1c); settings: for NeuAz expression / DBCO-Cy5 signal, compound alone: 50 μM alone; for extent of suppression of NeuAz expression by 1c: 50 μM co-incubated with 1c, study parallel to GalNAz; for NeuAz expression, % of controls: 50 μM with 1c 50 μM, simultaneous addition; for reduction of NeuAz, simultaneous addition: analogue 10 μM and 1c 50 μM added simultaneously
# Procedure: FIG. 5 illustrates competitive processing by compounds of the present invention (ManNAc compounds). ManNAc compounds competitively reduce the expression of N-azidoacetyl-D-neuraminic acid (NeuAz)-carrying sialoglycans through the metabolic processing of Ac4ManNAz. Jurkat (human T-lymphoma) cells were incubated with Ac4ManNAz (Z) (50 μM) alone, co-incubated with GL-2, GL-3, MA-2, or MA-3 (at various concentrations such as 10,
# 25, and 50 μM) for 24 h. Expression of N-azidoacetyl-D-neuraminic acid (NeuAz) on the cell surface sialoglycans was estimated using strain-promoted azide-alkyne cycloaddition (SPAAC) with DBCO-Cy5 and analyzed by flow cytometry. […] GL-2 was used for comparative study and the structure of this compound is as below.
# Jurkat cells (3.0×10^5 cells/mL; 2.5 mL per well in 6-well plates) in complete medium were treated with either vehicle (D) or Compound 1c; Untreated Jurkat cells, without addition of vehicle, were also included as additional controls. Cells were harvested at 48 h, washed thrice with PBS (3×0.5 mL) (3000×g, 2.0 min). Prior to the last wash cells were counted and were aliquoted to 1.0×10^6 cells per sample in 1.5 mL microcentrifuge tubes and centrifuged. The cells were gently resuspended in PBS ([…]) and treated with DBCO-Cy5 ([…]) and incubated at 37° C. (on a Torrey-Pines dry heating bath with mild shaking). After one hour, the cells were washed using FSB (0.5 mL, 3000×g, 2.0 min, room temperature), resuspended in PBS (250 mL), treated with PI (2.5 mg/mL), and analyzed using BD FACSCanto and FACSDiva Version 6.1.3. The cells were gated for PI-negative population for 10,000 events. Two replicate samples were prepared for each conditions and each sample was counted twice.
# Estimation of NeuAz expression by 1c in the presence of peracetylated ManNAc analogues: Jurkat cells (3.0×10^5 cells/mL in 3.0 mL per well in 6-well plates) were incubated with (i) D, (ii) 1a, 1b, 1c, or 1d alone (50 mM) or (iii) 1a, 1b, or 1d (50 mM) in combination with 1c (50 mM). After 24 h, cells were harvested, washed using FSB, aliquoted to 5.0×10^5 cells per sample, and processed as mentioned above for estimation of NeuAz expression using DBCO-Cy5 ([…]). Experiments using HL-60 cells were performed using the same procedure. […]
# Effect of GlcNAc and ManNAc analogues on NeuAz expression: Jurkat cells were treated with 1a, 1b, 2a, or 2b (10, 25, and 50 mM for each analogue) in combination with 1c (50 mM). Cells treated with 1c (50 mM) alone were considered as a reference. After 24 h, cells were harvested, processed, labelled with DBCO-Cy5 ([…]), and analysed by flow cytometry as mentioned above.
# In order to evaluate the metabolism, Jurkat (human T-lymphoma) cells were selected and incubated with ManNAc analogues either alone (50 μM) or in combination with 1c (50 μM) for 48 h. Expression of NeuAz on cell surface was estimated by flow cytometry through the copper-free bio-orthogonal strain-promoted azide-alkyne cycloaddition (SPAAC) reaction using dibenzocyclooctyne-Cy5 (DBCO-Cy5). The conditions for click reaction were optimized for various concentrations of DBCO-Cy5 and time course of SPAAC reaction in Jurkat cells. Based on the optimization results, incubation time of 30 min at 37° C. for 5.0×10^5 cells (pre-incubated with 1c for 48 h) with 20 μM of DBCO-Cy5 in 100 μL total volume for experiments with ManNAc analogues was chosen. […] In order to test the dose-dependency of this inhibitory effect on NeuAz expression and to establish competitive metabolic processing, Jurkat cells were first treated with either 1a or 1b (0-50 μM) followed by addition of 1c (50 μM) at 12 h and estimation of NeuAz at 48 h. As expected, the suppression of NeuAz expression was substantially higher when added with a 12 h delay compared to simultaneous addition, in a dose-dependent manner. […] By contrast simultaneous addition resulted only in a 10% reduction of NeuAz for both 1a and 1b (FIG. 6C and FIG. 7B).
# [2] = system: HL-60 cells; assay: SNA lectin binding on intact cells by flow cytometry; settings: 50 μM, 24 h
# [3] = system: HL-60 cells; assay: NeuAz expression by SPAAC with DBCO-Cy5 and flow cytometry, competition with 1c; settings: 50 μM with 1c 50 μM, 24 h
# Procedure: Estimation of NeuAz expression by 1c in the presence of peracetylated ManNAc analogues: Jurkat cells (3.0×10^5 cells/mL in 3.0 mL per well in 6-well plates) were incubated with (i) D, (ii) 1a, 1b, 1c, or 1d alone (50 mM) or (iii) 1a, 1b, or 1d (50 mM) in combination with 1c (50 mM). After 24 h, cells were harvested, washed using FSB, aliquoted to 5.0×10^5 cells per sample, and processed as mentioned above for estimation of NeuAz expression using DBCO-Cy5 ([…]). Experiments using HL-60 cells were performed using the same procedure.
# Having confirmed metabolic acceptability in Jurkat cells, the compounds were tested on HL-60 (human acute myeloid leukemia) cells which are a reliable model for neutrophil adhesion. The effect on competitive suppression of NeuAz expression was studied using 1c as a reporter. HL-60 cells were treated with 1c either alone (50 μM) or in combination with ManNAc analogues (50 μM), including the straight chain derivatives, for 24 h followed by DBCO-Cy5 ligation. […] The decreasing ability of linear alkyl moieties (1d-1g), as a function of chain length, for suppression of NeuAz expression is in contrast to the cycloalkyl moieties. […] Similarly, 1a induced a reduction of 40% compared to only a 15% reduction by 1f.
# [4] = 50 μM co-incubated with 1c 50 μM, 48 h
Structure (SMILES),"NeuAz expression / DBCO-Cy5 signal, compound alone ([1]; 48 h)","NeuAz expression (1c alone taken as 100%) [1, 4]",extent of suppression of NeuAz expression by 1c [1],"NeuAz expression, % of controls ([1]; 24 h)","NeuAz expression upon co-incubation with Ac4ManNAz ([1]; Ac4ManNAz (Z) 50 μM plus analogue at 10, 25, 50 μM, 24 h, listed as MA-2)","reduction of NeuAz, simultaneous addition [1]",SNA binding on intact cells compared to untreated cells [2],NeuAz expression with respect to 1c alone (100%) [3],reduction of NeuAz expression with respect to controls [3],"reduction of NeuAz expression [1, 4]",suppression of NeuAz expression (in words) [3]
"CC(=O)OC[C@H]1O[C@H](OC(C)=O)[C@@H](NC(=O)C2CC2)[C@@H](OC(C)=O)[C@@H]1OC(C)=O [Compound 1a, 1,3,4,6-tetra-O-acetyl-2-cyclopropanoylamino-2-deoxy-α-D-mannopyranose]",negligible signals,60%,50%,60%,reduced competitively in a dose-dependent manner,10%,no significant differences,60%,40%,,
"CC(=O)OC[C@H]1OC(OC(C)=O)[C@@H](NC(=O)C2CCC2)[C@@H](OC(C)=O)[C@@H]1OC(C)=O (stereo partly drawn) [Compound 1b, (3S,4R,5S,6R)-6-(acetoxymethyl)-3-(cyclobutanecarboxamido)tetrahydro-2H-pyran-2,4,5-triyl triacetate]",negligible signals,65%,50%,50%,,10%,no significant differences,55%,45%,,
"CC(=O)NC1C(OC(C)=O)OC(COC(C)=O)[C@@H](OC(C)=O)[C@@H]1OC(C)=O (stereo partly drawn) [Compound 1d, 1,3,4,6-tetra-O-acetyl-2-acetylamino-2-deoxy-α/β-D-mannopyranose]",negligible signals,30%,,,,,no significant differences,40%,,70%,Maximum suppression
